Test results from US10273313B2, “Multimeric mannosides, a process for preparing the same and their uses as a drug” (CENTRE NATIONAL DE LA RECHERCHE SCIENTIFIQUE, priority 2012, dated 2019).
Where two headings read alike, the source gives them in different places.

What was measured:
[1] = test system: AIEC LF82 bacteria in colonic loops of CEABAC10 mice expressing human CEACAM6; assay: Adhesion assay in colonic loops of CEABAC10 mice; format: in vivo; settings: dose of 0.1 μmol, 4 h incubation
Description: E. coli strain LF82 was isolated from a chronic ileal lesion of a patient with Crohn's disease (CD). Bacteria were grown routinely in Luria-Bertani (LB) broth overnight at 37° C.
The transgenic mouse model CEABAC10 expressing the human CEACAM6 protein is available in the UMR Inserm/Université d'Auvergne 1071 led by Professor Arlette Darfeuille-Michaud at Clermont-Ferrand. This model is particularly suitable to reproduce the abnormal colonization by AIEC bacteria through the interaction with CEACAM6 molecules that were observed abnormally expressed in the ileal mucosa of Crohn's disease patients.
Three colonic loops were realized in anesthetized CEABAC10 mice. A volume of 100 μl of a bacterial suspension containing 6×10^6 bacteria/mL with or without inhibitory compound was injected into the loops (here, compound 2, example 1) or heptyl-mannose at a concentration of 100 μM). After an incubation period of 4 h, mice were euthanized and each loop was longitudinally opened, extensively washed and homogenized to numerate adherent LF82 bacteria. Bacterial adhesion was expressed as percentages of residual adhesion (100% corresponds to the adhesion in absence of any compound).

[2] = test system: E. coli strain UTI89 expressing type-1 fimbriae; assay: Bacterial crosslinking, epi-fluorescence microscopy; format: cell-based, Escherichia coli; settings: acridin orange colored UTI89
Description: The possibility to capture living bacteria in solution with β-CD-based glycol-clusters 2 and 4, using epi-fluorescence microscopy was investigated.
It was decided to evaluate if the FimH aggregation evidenced in ITC, DLS and SAXS could also occur when the lectin is attached at the tip of the bacteria pili. E. coli strain UTI89 expressing type-1 fimbriae. Said bacteria were diluted from the culture medium into PBS and glyco-conjugated in a ten-fold dilution series of 2 or 4 were added. Bacterial cells were then colored with acridin orange.
100 μl of glycoconjugate-agglutinated E. coli were washed in 1 ml PBS, resuspended in 200 μl 0.1% acridin orange and left at room temperature for 2.5 hours. The bacterial cells were washed again in 1 ml PBS to remove unbound acridin orange. A microscope glass was rinsed with 100% EtOH and next dried at the air.

[3] = test system: AIEC LF82 strain adhesion to T84 intestinal epithelial cells; assay: Adhesion assay on T84 cells, cells incubated 1 h with mannoside prior infection (Example 21.1); format: cell-based, Escherichia coli
Description: E. coli strain LF82 was isolated from a chronic ileal lesion of a patient with Crohn's disease (CD). Bacteria were grown routinely in Luria-Bertani (LB) broth overnight at 37° C. Intestinal epithelial cells T84 derived from colonic adenocarcinoma were maintained in an atmosphere containing 5% CO2 at 37° C. in DMEM/F12 (50/50) medium supplemented with 10% (v/v) heat-inactivated fetal calf serum (FCS), 1% L-glutamine, 100 000 U·l^−1 penicillin, 100 mg·l^−1 streptomycin, 25 μg·l^−1 amphotericin B.
T84 cells were seeded in 48-well tissue culture plates with 1.5×10^5 cells per well and grown for 48 h. Cells were incubated 1 h prior infection with each mannoside at a final concentration of 100; 10; 1 or 0.1 μM in complete medium without antibiotics, containing heat inactivated fetal calf serum (FCS) and were next infected with AIEC LF82 strain at a multiplicity of infection (MOI) of 10 bacteria per cell. After a 3 h incubation period at 37° C., the monolayers were washed in phosphate-buffered saline (PBS; pH 7.2). The epithelial cells were then lysed with 1% Triton X-100 in deionized water. Samples were diluted and plated onto Luria Bertani agar plates to determine the number of cfu recovered from the lysed monolayers.
Results were expressed in percentage of residual adhesion, considering adhesion level of AIEC LF82 without mannoside treatment as 100%.

[4] = target: T1, FimH (Escherichia coli, UniProt P08191); format: binding
T1 sequence (P08191 22-300): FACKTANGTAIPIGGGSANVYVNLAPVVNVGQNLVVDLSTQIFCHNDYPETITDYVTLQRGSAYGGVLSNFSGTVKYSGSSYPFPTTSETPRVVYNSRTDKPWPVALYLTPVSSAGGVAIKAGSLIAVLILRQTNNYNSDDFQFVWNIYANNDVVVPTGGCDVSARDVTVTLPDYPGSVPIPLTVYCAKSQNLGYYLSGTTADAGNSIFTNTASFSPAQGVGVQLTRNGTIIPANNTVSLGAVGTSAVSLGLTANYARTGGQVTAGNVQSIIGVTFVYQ
Description: Journal of the American Society for Mass Spectrometry, 2009. […] Tested compounds were added to wells following with FimH treatment.
Plates were coated with 100 μl of 10 mg/ml solution of RNAse-B in 100 mM carbonate/bicarbonate buffer pH 9.6. […] 2 h. Then washed three times with 10 mM PBS containing 0.05% Tween-20. […] Wells were washed three times with 10 mM PBS+0.05% Tween-20. 100 μl of anti-body conjugated to horseradish peroxidase (1:5000) was added in buffer and incubated for 1 h at room temperature. Then washed three times with 10 mM PBS+0.05% Tween-20. Added 100 μl of TMB and incubated in dark for 2-5 min. The reaction was stopped with 100 μl/well 1N sulfuric acid. Plate absorbance was analyzed at 450 nm using microplate reader.

[5] = test system: AIEC strain LF82 adhesion to T84 intestinal epithelial cells; assay: Adhesion assay on T84 cells with thiazolylaminomannosides (Example 22.3); format: cell-based, Escherichia coli
Summary of the method: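 CEACAM6-overexpressing T84 cells pre-incubated 1 h with compound (0.1, 1, 10, 100 μM), then infected with AIEC LF82 at MOI 10 for 3 h in compound presence. Cell-associated bacteria counted after washing; residual adhesion expressed relative to untreated (100%).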

[6] = target: T1, FimH; settings: Surface Plasmon Resonance (SPR); read-out: Dissociation constant of the HM-FimH complex; cited from earlier work
[7] = target: T1, FimH; settings: Isothermal Titration calorimetry (ITC); read-out: Dissociation constant of the HM-FimH complex; cited from earlier work

SMILES	Bacterial adhesion in colonic loops compared with no inhibitor [1]	Bacterial clustering in solution [2]	Concentration reaching around 75% of binding inhibition (25% line) [3] [µM]	Inhibition of oligomannoside binding (FIG. 17) ([4]; compounds 1, 2, 6 and HM compared)	Inhibitory potency relative to α-D-mannose [5] [times]	Inhibitory effect on adhesion ([5]; 100 nM)	AIEC remaining attached to the cells (residual adhesion) ([5]; 1 μM)	Residual adhesion ([5]; 10 μM) [%]	Kd [6] [nM]	Kd [7] [nM]	Inhibition of FimH binding compared to FimH alone ([4]; 5 nM)	Stability of activity in dissolved form ([4]; HM after 1 month storage in dissolved form vs immediately dissolved)
OCC1OC(OCCCCCCCOCc2cn(CC3OC4OC5C(Cn6cc(COCCCCCCCOC7OC(CO)C(O)C(O)C7O)nn6)OC(OC6C(Cn7cc(COCCCCCCCOC8OC(CO)C(O)C(O)C8O)nn7)OC(OC7C(Cn8cc(COCCCCCCCOC9OC(CO)C(O)C(O)C9O)nn8)OC(OC8C(Cn9cc(COCCCCCCCOC%10OC(CO)C(O)C(O)C%10O)nn9)OC(OC9C(Cn%10cc(COCCCCCCCOC%11OC(CO)C(O)C(O)C%11O)nn%10)OC(OC%10C(Cn%11cc(COCCCCCCCOC%12OC(CO)C(O)C(O)C%12O)nn%11)OC(OC3C(O)C4O)C(O)C%10O)C(O)C9O)C(O)C8O)C(O)C7O)C(O)C6O)C(O)C5O)nn2)C(O)C(O)C1O (stereo not drawn) [Compound 2]	two-fold decreased adhesion	formation of bacterial clusters	1	most potent inhibition								
CCCCCCCO[C@H]1O[C@H](CO)[C@@H](O)[C@H](O)[C@@H]1O [HM, Heptylmannoside, reference compound]					100	no significant effect	No significant decrease	52.4	5	7	significantly inhibited FimH binding	loosing activity in dissolved form
